From patent US9944618B2, “Inhibiting neurotransmitter reuptake” (Mayo Foundation for Medical Education and Research, priority 2013, dated 2018)
Read-outs that look alike come from different tables or passages of the source.

Experiments:
[1] = molecular target: human norepinephrine transporter (Homo sapiens (Human), UniProt P23975); assay: Human NET (norepinephrine transporter) uptake assay; format: cell-based; conditions: read-out: hNET Ki
How it was run: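 HEK293F cells transfected with human NET were thawed, plated at about 60,000 cells/well and held at 37 °C for at least 3 h. Compounds came from 10 mM DMSO stocks, with nomifensine as control, in 1×HBSS/0.02 M HEPES. Uptake was followed with a neurotransmitter transporter dye, dosed as % of vendor reconstitution, in triplicate.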

[2] = molecular target: human dopamine transporter (Homo sapiens (Human), UniProt Q01959); assay: Human DAT (dopamine transporter) uptake assay; format: cell-based; conditions: read-out: hDAT Ki
human dopamine transporter, sequence (Q01959 whole entry): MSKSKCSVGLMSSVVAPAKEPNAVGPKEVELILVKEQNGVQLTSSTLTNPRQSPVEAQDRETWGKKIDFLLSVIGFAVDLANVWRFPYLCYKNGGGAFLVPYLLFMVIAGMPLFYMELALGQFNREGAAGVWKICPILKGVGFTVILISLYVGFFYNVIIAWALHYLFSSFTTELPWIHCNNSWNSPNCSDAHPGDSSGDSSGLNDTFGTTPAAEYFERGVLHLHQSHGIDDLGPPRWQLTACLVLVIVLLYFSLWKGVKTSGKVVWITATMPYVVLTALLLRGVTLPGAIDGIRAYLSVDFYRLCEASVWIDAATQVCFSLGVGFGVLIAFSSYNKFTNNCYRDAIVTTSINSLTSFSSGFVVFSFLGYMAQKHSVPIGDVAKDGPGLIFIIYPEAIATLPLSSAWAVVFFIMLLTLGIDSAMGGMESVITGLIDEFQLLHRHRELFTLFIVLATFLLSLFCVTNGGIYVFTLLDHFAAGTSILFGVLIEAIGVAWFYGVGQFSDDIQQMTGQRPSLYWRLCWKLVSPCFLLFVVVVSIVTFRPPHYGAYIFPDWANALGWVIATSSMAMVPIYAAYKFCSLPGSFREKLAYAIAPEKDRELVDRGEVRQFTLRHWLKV
How it was run: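 Uptake inhibition was measured in HEK293F cells transfected with human DAT, plated at ~60,000 cells/well and settled ≥3 h at 37 °C. Compounds came from 10 mM DMSO stocks. Read-out was uptake of a fluorescent neurotransmitter transporter dye in HBSS with 0.02 M HEPES, with dye level given as % of vendor reconstitution; n=3.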

[3] = molecular target: human serotonin transporter (Homo sapiens (Human), UniProt P31645); assay: Human SERT (serotonin transporter) uptake assay; format: cell-based; conditions: read-out: hSERT Ki
human serotonin transporter, sequence (P31645 whole entry): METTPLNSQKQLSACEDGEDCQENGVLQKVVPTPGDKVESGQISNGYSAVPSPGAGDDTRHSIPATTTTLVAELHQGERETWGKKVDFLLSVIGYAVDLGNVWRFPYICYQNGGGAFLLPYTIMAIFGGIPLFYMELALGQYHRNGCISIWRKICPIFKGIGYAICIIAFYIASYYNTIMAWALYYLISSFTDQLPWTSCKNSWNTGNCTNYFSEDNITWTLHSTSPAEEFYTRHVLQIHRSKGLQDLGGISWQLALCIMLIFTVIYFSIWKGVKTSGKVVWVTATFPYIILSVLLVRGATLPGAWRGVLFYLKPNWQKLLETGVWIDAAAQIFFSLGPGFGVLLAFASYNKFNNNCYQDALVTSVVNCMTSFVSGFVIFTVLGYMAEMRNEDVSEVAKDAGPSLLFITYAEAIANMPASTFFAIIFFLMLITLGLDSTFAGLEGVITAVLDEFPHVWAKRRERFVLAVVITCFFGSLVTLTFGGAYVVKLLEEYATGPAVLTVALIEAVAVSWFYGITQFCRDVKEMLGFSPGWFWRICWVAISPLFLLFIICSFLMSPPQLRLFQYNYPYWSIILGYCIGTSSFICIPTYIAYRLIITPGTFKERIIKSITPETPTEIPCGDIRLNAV
How it was run: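 HEK293F cells transfected with human SERT, about 60,000 per well, settled for ≥3 h at 37° C before compound addition. Uptake was followed with a fluorescent transporter dye in HBSS with 0.02 M HEPES. Background came from 10 μM fluoxetine, nomifensine was the control, n=3.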

hERG = hERG (Homo sapiens (Human), UniProt Q12809); assay: Human ERG (hERG) assay, hERG currents in hERG-expressing CHO cells; format: cell-based
hERG, sequence (Q12809 whole entry): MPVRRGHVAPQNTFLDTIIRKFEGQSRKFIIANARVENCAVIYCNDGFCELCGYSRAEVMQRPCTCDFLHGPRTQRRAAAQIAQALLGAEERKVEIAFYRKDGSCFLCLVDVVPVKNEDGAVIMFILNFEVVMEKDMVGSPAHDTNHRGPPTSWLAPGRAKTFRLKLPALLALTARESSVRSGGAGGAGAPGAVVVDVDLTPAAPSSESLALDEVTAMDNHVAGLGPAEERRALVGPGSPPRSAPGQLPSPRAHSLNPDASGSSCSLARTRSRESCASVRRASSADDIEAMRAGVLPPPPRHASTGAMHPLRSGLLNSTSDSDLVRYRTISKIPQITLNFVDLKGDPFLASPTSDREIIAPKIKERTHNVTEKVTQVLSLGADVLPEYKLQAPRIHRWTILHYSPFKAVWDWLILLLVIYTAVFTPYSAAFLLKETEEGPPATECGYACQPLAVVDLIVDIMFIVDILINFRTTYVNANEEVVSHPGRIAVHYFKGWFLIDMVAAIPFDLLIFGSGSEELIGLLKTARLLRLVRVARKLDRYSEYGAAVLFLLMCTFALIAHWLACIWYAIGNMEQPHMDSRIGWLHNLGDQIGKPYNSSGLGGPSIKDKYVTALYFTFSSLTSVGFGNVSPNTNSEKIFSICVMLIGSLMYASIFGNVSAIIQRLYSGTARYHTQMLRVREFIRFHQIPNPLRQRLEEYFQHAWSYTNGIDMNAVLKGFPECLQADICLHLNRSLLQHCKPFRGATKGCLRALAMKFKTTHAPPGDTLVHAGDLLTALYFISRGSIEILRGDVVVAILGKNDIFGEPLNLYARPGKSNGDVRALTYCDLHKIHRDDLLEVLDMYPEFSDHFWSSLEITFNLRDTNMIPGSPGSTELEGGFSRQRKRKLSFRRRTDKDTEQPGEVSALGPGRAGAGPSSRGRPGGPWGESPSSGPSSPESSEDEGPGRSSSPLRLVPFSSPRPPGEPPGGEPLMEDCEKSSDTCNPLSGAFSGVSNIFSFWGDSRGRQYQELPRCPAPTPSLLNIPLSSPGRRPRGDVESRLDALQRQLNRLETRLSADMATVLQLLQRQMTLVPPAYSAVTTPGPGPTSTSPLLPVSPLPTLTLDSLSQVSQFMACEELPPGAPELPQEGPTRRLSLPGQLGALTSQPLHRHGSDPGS
Source text: The voltage-dependent potassium channel encoded by the human ether-a-go-go-related gene (hERG) is believed to play a key role in repolarisation of the ventricular cardiac action potential. Changes in its activity, caused either by inherited mutations of the gene sequence or pharmacological modification, can lead to prolongation of action potential duration. This can lead to prolongation of the QT interval recorded in man on an electrocardiogram and to a potentially fatal cardiac arrhythmia known as Torsades de Pointes.
hERG currents were recorded from hERG-expressing CHO cells. The biophysical and pharmacological characterization of the hERG currents in these cells was performed.

[4] = pKa of basic centres (Table 1); format: physicochemical
CYP2D6 = CYP2D6 (Homo sapiens (Human), UniProt P10635); assay: Cytochrome P450 inhibition assay, recombinant CYP2D6 (MAMC substrate); format: in vitro ADME; conditions: recombinant enzyme
CYP2D6, sequence (P10635 whole entry): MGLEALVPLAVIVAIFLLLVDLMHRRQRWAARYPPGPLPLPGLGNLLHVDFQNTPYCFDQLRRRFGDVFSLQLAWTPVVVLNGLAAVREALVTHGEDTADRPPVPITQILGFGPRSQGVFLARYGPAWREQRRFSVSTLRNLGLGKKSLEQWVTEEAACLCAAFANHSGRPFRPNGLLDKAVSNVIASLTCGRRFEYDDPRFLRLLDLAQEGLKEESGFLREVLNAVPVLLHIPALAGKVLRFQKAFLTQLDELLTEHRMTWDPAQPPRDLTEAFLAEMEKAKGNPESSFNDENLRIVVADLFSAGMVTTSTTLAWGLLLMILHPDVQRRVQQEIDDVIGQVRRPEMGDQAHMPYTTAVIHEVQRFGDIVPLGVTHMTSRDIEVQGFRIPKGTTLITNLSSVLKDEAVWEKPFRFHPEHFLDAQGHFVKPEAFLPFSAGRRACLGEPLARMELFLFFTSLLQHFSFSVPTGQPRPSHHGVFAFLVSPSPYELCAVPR

CYP3A4 = CYP3A4 (Homo sapiens (Human), UniProt P08684); assay: Cytochrome P450 inhibition assay, recombinant CYP3A4 (BFC substrate); format: in vitro ADME; conditions: recombinant enzyme
CYP3A4, sequence (P08684 whole entry): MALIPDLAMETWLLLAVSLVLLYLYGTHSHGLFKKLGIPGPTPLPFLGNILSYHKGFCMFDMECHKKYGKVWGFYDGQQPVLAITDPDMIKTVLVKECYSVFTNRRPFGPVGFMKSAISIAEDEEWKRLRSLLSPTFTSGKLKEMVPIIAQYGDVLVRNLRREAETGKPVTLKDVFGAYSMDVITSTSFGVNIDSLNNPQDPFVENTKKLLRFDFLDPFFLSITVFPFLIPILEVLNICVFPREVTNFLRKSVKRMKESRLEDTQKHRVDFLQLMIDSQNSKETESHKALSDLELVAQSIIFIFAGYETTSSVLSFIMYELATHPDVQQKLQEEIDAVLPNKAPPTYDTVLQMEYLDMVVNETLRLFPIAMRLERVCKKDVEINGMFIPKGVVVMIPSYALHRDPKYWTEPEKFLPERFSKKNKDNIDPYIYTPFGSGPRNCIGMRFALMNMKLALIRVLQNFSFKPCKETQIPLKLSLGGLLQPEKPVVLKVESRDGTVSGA

[5] = first base, e.g., an aliphatic primary, secondary, or tertiary amine
[6] = first base, e.g., an aliphatic primary, secondary, or tertiary amine, read-out: pKa (Base 1)
[7] = selected reference compounds, HEK293F cells, Cheng-Prusoff
[8] = selected reference compounds, CHO cells
[9] = second base in the same molecule (if present), read-out: pKa (Base 2)

human norepinephrine transporter, sequence (P23975 whole entry): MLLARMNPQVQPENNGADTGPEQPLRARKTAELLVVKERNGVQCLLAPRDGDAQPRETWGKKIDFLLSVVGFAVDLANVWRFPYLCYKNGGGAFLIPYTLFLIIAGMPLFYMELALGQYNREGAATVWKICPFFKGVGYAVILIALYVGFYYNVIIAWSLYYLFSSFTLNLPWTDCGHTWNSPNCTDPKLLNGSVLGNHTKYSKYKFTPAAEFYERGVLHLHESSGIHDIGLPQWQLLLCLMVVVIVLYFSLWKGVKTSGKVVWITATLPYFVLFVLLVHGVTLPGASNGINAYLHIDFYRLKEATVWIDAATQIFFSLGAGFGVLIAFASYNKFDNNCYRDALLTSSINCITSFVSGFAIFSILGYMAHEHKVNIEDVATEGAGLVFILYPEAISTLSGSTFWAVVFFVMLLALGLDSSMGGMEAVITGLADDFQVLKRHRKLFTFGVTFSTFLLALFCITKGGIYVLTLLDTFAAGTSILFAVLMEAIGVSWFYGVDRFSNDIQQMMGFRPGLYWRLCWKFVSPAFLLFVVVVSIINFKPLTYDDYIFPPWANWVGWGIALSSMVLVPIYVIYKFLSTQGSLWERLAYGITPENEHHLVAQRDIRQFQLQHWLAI

CNCC(Cc1ccccc1OC)c1ccc2ccccc2c1 (centres unmarked) [Compound 132]
Ki [1]: 10.3 nM | Ki [2]: 41.8 nM | Ki [3]: 12.4 nM | IC50 (hERG; hERG-expressing CHO cells): 4700 nM | pKa (Base 1) [4, 5]: 10.1

CCNC(=O)CO[C@H](c1ccccc1)[C@H](CNC)c1ccc2ccccc2c1 [Compound 6]
Ki [1]: 1.4 nM | Ki [2]: 39.2 nM | Ki [3]: 0.8 nM | IC50 (hERG; hERG-expressing CHO cells): 25000 nM | IC50 (CYP2D6): 760 nM | pKa [4, 6]: 9.6

CNC[C@H](c1ccc2ccccc2c1)[C@H](OCc1cc(C)on1)c1ccccc1 [Compound 18]
Ki [1]: 1.8 nM | Ki [2]: 31.9 nM | Ki [3]: 0.4 nM | IC50 (hERG; hERG-expressing CHO cells): 4600 nM | IC50 (CYP2D6): 330 nM | pKa [4, 6]: 9.6

CNCC(Cc1ccccc1CO)c1ccc2ccccc2c1 (centres unmarked) [Compound 2]
Ki [1]: 1 nM | Ki [2]: 5.5 nM | Ki [3]: 2.5 nM | IC50 (hERG; hERG-expressing CHO cells): 15000 nM | IC50 (CYP2D6): 170 nM | pKa (Base 1) [4, 5]: 10

CNCC(Cc1ccccc1CO)c1ccc2ccccc2c1 (centres unmarked) [Compound 90]
Ki [1]: 22.6 nM | Ki [2]: 86.2 nM | Ki [3]: 25.4 nM | IC50 (hERG; hERG-expressing CHO cells): 12000 nM | IC50 (CYP2D6): 590 nM | pKa [4, 6]: 10

CNC[C@@H](c1ccc(Cl)c(Cl)c1)[C@@H](O)c1ccccc1 [Compound 114]
Ki [1]: 171 nM | Ki [2]: 27 nM | Ki [3]: 661 nM | IC50 (hERG; hERG-expressing CHO cells): 11000 nM | pKa [4, 6]: 9.4

CCOC(=O)CO[C@H](c1ccccc1)[C@H](CNC)c1ccc2ccccc2c1 [Compound 35]
Ki [1]: 2.8 nM | Ki [2]: 70.8 nM | Ki [3]: 3.7 nM | IC50 (hERG; hERG-expressing CHO cells): 13000 nM | IC50 (CYP2D6): 320 nM | pKa [4, 6]: 9.6

CN(C)C[C@H](c1ccc2ccccc2c1)[C@H](O)c1ccccc1 [Compound 83]
Ki [1]: 15.7 nM | Ki [2]: 46.7 nM | IC50 (hERG; hERG-expressing CHO cells): 4300 nM | pKa [4, 6]: 9

CNC[C@H](c1ccc2ccccc2c1)[C@H](O)c1ccccc1 [compound 173]
Ki [1, 7]: 0.5 nM | Ki [2, 7]: 4.6 nM | Ki [3, 7]: 1.2 nM | IC50 (hERG; [8]): 8800 nM

CNC[C@H](c1ccc2ccccc2c1)[C@H](OCC(=O)N1CCC1)c1ccccc1 [Compound 30]
Ki [1]: 2.4 nM | Ki [2]: 14.3 nM | Ki [3]: 1 nM | IC50 (hERG; hERG-expressing CHO cells): 29000 nM | pKa [4, 6]: 9.6

CNC[C@H](c1ccc2ccccc2c1)[C@H](OCc1cc(C)no1)c1ccccc1 [Compound 20]
Ki [1]: 1.9 nM | Ki [2]: 36.1 nM | Ki [3]: 3.2 nM | IC50 (hERG; hERG-expressing CHO cells): 4700 nM | pKa [4, 6]: 9.6

CNC[C@@H](c1ccc2ccccc2c1)[C@H](O)c1ccccc1 [compound 180]
Ki [1, 7]: 2.9 nM | Ki [2, 7]: 47.5 nM | Ki [3, 7]: 14.8 nM | IC50 (hERG; [8]): 32000 nM

CNC[C@@H](c1ccc2ccccc2c1)[C@@H](O)c1cccnc1 [Compound 103]
Ki [1]: 57.6 nM | Ki [2]: 91.9 nM | Ki [3]: 58.6 nM | IC50 (CYP3A4): 20000 nM | IC50 (CYP2D6): 11000 nM | pKa (Base 1) [4, 5]: 9.6 | pKa (Base 2) ([4]; second base in the same molecule (if present)): 5.1

CNC[C@@H](c1ccc(Cl)c(Cl)c1)[C@@H](O)c1cccc(N2CCOCC2)c1 [Compound 125]
Ki [1]: 371 nM | Ki [2]: 65.3 nM | Ki [3]: 725 nM | IC50 (CYP3A4): 4800 nM | IC50 (CYP2D6): 2400 nM | pKa [4, 6]: 9.4 | pKa [4, 9]: 5.1

CNC[C@H](c1ccc(Cl)c(Cl)c1)[C@@H](O)c1cccc(NS(=O)(=O)C(F)(F)F)c1 [Compound 127]
Ki [1]: 649 nM | Ki [2]: 80.5 nM | Ki [3]: 3280 nM | IC50 (CYP3A4): 20000 nM | IC50 (CYP2D6): 15000 nM | pKa [4, 6]: 9.4

CNC[C@@H](c1ccc(Cl)c(Cl)c1)[C@@H](O)c1cccnc1OC [Compound 171]
Ki [1]: 454 nM | Ki [2]: 92 nM | Ki [3]: 1850 nM | IC50 (CYP3A4): 20000 nM | IC50 (CYP2D6): 2000 nM | pKa [4, 6]: 9.2 | pKa [4, 9]: 3.2

CNCC(c1ccc2ccccc2c1)[C@@H](O)c1ccc(Cl)nc1 (some centres unmarked) [Compound 169]
Ki [1]: 212 nM | Ki [2]: 146 nM | Ki [3]: 268 nM | IC50 (CYP3A4): 20000 nM | IC50 (CYP2D6): 1300 nM | pKa [4, 6]: 9.6

CNC[C@H](c1ccc(Cl)c(Cl)c1)[C@@H](O)c1cccc(SC)c1 [Compound 163]
Ki [1]: 80 nM | Ki [2]: 110 nM | Ki [3]: 192 nM | IC50 (CYP3A4): 14000 nM | IC50 (CYP2D6): 730 nM | pKa [4, 6]: 9.4

NCC(c1ccc2ccccc2c1)C(O)c1ccc(F)cc1F (centres unmarked) [Compound 107]
Ki [1]: 82.2 nM | Ki [2]: 126 nM | Ki [3]: 727 nM | IC50 (CYP3A4): 19000 nM | IC50 (CYP2D6): 2400 nM | pKa [4, 6]: 8.5

CNC[C@H](c1ccc(Cl)c(Cl)c1)[C@@H](O)c1cccc(Br)c1 [Compound 161]
Ki [1]: 38.5 nM | Ki [2]: 103 nM | Ki [3]: 616 nM | IC50 (CYP3A4): 9200 nM | IC50 (CYP2D6): 160 nM | pKa [4, 6]: 9.4

CNC[C@H](c1ccc(Cl)c(Cl)c1)[C@H](O)c1cccc(S(C)(=O)=O)c1 [Compound 101]
Ki [1]: 54.4 nM | Ki [2]: 73 nM | Ki [3]: 2740 nM | IC50 (CYP3A4): 20000 nM | IC50 (CYP2D6): 3500 nM | pKa [4, 6]: 9.3

CN1CO[C@H](c2ccccc2)[C@@H](c2ccc3ccccc3c2)C1 [Compound 4]
Ki [1]: 1.4 nM | Ki [2]: 10.9 nM | Ki [3]: 2.5 nM | IC50 (CYP3A4): 20000 nM | IC50 (CYP2D6): 300 nM | pKa [4, 6]: 6.6

CNCC(Cc1ccccc1)c1ccc2cccnc2c1 (centres unmarked) [Compound 75]
Ki [1]: 10.4 nM | Ki [2]: 505 nM | Ki [3]: 2.1 nM | IC50 (CYP3A4): 16000 nM | IC50 (CYP2D6): 560 nM | pKa [4, 6]: 10 | pKa [4, 9]: 4.8

CNC[C@H](c1ccc(Cl)c(Cl)c1)[C@H](O)c1ccncc1 (racemic) [Compound 155]
Ki [1]: 17.8 nM | Ki [2]: 46.6 nM | Ki [3]: 73.7 nM | IC50 (CYP3A4): ≥ 20000 nM | IC50 (CYP2D6): 1400 nM | pKa [4, 6]: 9.3 | pKa [4, 9]: 5.3

CNC[C@@H](c1ccc2ccccc2c1)[C@@H](O)c1cncc(OC)c1 [Compound 122]
Ki [1]: 273 nM | Ki [2]: 49.6 nM | Ki [3]: 124 nM | IC50 (CYP3A4): 20000 nM | IC50 (CYP2D6): 3400 nM | pKa [4, 6]: 9.6 | pKa [4, 9]: 4.5

CNC[C@H](c1ccc2ccccc2c1)[C@H](O)c1ccc(Cl)s1 (single isomer, unassigned) [Compound 58]
Ki [1]: 5.1 nM | Ki [2]: 127 nM | Ki [3]: 5.9 nM | IC50 (CYP3A4): 9600 nM | IC50 (CYP2D6): 120 nM | pKa [4, 6]: 9.7
